# What was measured:
# MDA-MB-231 cells [1] = assay: MTT assay (cell viability); assay type: cell-based, human; conditions: different concentrations and time points
# Protocol: (§1) MTT Assay: After treatment with different concentrations of α-santalol for different time points, cells were incubated with MTT and subsequently solubilized in DMSO. Absorbance was measured at 570 nm.
# MCF-7 cells [2] = assay: MTT assay (cell viability); assay type: cell-based, human; conditions: different concentrations and time points
# Protocol: as §1
# MDA-MB-231 cells [3] = assay: Western blotting of apoptotic proteins; assay type: cell-based, human; conditions: 12, 24 or 48 hours
# Protocol: (§2) Western Blotting: Cells were treated with various concentrations of α-santalol and incubated for 12, 24 or 48 hours. Cell lysates were made and subjected to western blot analysis to determine the expression of different proteins.
# MCF-7 cells [4] = assay: Western blotting of apoptotic proteins; assay type: cell-based, human; conditions: 12, 24 or 48 hours
# Protocol: as §2
# MDA-MB-231 cells [5] = assay: TUNEL assay and flow cytometry (apoptosis); assay type: cell-based, human
# Protocol: (§3) TUNEL Assay and Flow Cytometry: After incubation with alpha-santalol, cells were fixed with paraformaldehyde and ethanol. DNA strand breaks were labeled with BrdUTP. Brdu incorporation at DNA strand breaks was detected by Alexa Fluor 488 dye-labeled anti-BrdU antibodies. Samples were analyzed by Flow Cytometry.
# MCF-7 cells [6] = assay: TUNEL assay and flow cytometry (apoptosis); assay type: cell-based, human
# Protocol: as §3
# MDA-MB-231 cells [7] = assay: BrdU cell proliferation ELISA; assay type: cell-based, human; conditions: 24 and 48 hours
# Protocol: (§4) BrdU Cell Proliferation ELISA: Used to quantitate cell proliferation based on the measurement of Brdu incorporation during DNA synthesis in proliferating cells. At the end of 24 and 48 hours of treatment, cells were labeled with BrdU, fixed, denatured, and then incubated with Anti-BrdU POD. Absorbance was measured at 405 nm.
# MCF-7 cells [8] = assay: BrdU cell proliferation ELISA; assay type: cell-based, human; conditions: 24 and 48 hours
# Protocol: as §4
# MDA-MB-231 cells [9] = assay: Cell cycle analysis, propidium iodide flow cytometry; assay type: cell-based, human; conditions: 25 μM-75 μM, 12 hours
# Protocol: (§5) Cell Cycle Analysis: After 12 hours of treatment with alpha-santalol, cells were fixed with 70% ethanol in PBS, treated with RNaseA, followed by staining with propidium iodide. Cells were analyzed by flow cytometry to determine cell-cycle distribution.
# MCF-7 cells [10] = assay: as above; assay type: cell-based, human; conditions: 25 μM-75 μM, 12 hours
# Protocol: as §5
# [11] = Penetration of α-santalol into porcine mammary papilla without keratin plug removal (Experiment 25); assay type: in vitro ADME; conditions: value (SEM), n=3
# Protocol: Experiment procedure—Mammary papillae were setup in FSD and kept for saturation for 12 hours. Then 500 μl of drug formulation was added in the donor. Three 200 μl samples of donor were taken to determine GCMS area of donors. Now 200 μl samples were collected from the receptor on each time point. […] Results may be seen in FIG. 51 and Table 33.
# [12] = Topical transmammary delivery of tamoxifen with and without α-santalol via porcine mammary papilla (Experiment 27); assay type: in vitro ADME; conditions: given in combination with α-santalol
# Protocol: From the receptor, 200 μl samples were taken at every time point. After 48 hours, tissues were taken, washed, cut in four sections, weighed and solubilized using the tissue solubilizer. After 24 hours, DPM counts were measured from each section of the tissue using scintillation cocktail.
# [13] = 6 hours treatment 48 h disposition study
Compound,Cell viability (MTT) (MDA-MB-231 cells [1]),Cell viability (MTT) (MCF-7 cells [2]),Cleavage of apoptotic proteins (western blot) (MDA-MB-231 cells [3]),Cleavage of apoptotic proteins (western blot) (MCF-7 cells [4]),"Apoptosis (TUNEL, flow cytometry) (MDA-MB-231 cells [5])","Apoptosis (TUNEL, flow cytometry) (MCF-7 cells [6])",Cell proliferation (BrdU ELISA) (MDA-MB-231 cells [7]),Cell proliferation (BrdU ELISA) (MCF-7 cells [8]),Cell cycle distribution (MDA-MB-231 cells [9]),Cell cycle distribution (MCF-7 cells [10]),"Tissue retention ([11]; 5% v/v in 2:1 ethanol:PBS, 6 h treatment)","Tissue retention [11, 13]","Tissue retention (% of applied dose) [11, 13]",Tissue retention (% of applied dose) ([11]; 6 h treatment),Tissue retention ([11]; 48 h treatment),Tissue retention (% of applied dose) ([11]; 48 h treatment),Applied dose retained by the tissue [12]
C/C(=C/CCC1(C)C2CC3C(C2)C31C)CO (stereo not drawn) [alpha-santalol],inhibition of cell viability and proliferation in a time and dose-dependent manner,inhibition of cell viability and proliferation in a time and dose-dependent manner,caspase-3 and PARP cleavage,PARP cleavage,significantly induced apoptosis,significantly induced apoptosis,inhibition of cell viability and proliferation in a time and dose-dependent manner,inhibition of cell viability and proliferation in a time and dose-dependent manner,arrested cell cycles at the G2/M phase,arrested cell cycles at the G2/M phase,5.21 (0.41) μmole/g tissue,5.34 (0.52) μmole/g tissue,2.01 (0.12) % of applied dose,2.20 (0.19) % of applied dose,35.52 (3.69) μmole/g tissue,15.30 (2.20) % of applied dose,–
CC/C(=C(\c1ccccc1)c1ccc(OCCN(C)C)cc1)c1ccccc1 [tamoxifen],–,–,–,–,–,–,–,–,–,–,–,–,–,–,–,–,approximately 40%

# Source: patent US9220680B2, “Compositions and methods for localized drug delivery through mammary papillae” (South Dakota State University, priority 2012, dated 2015)
